Measured values published in patent US12178800B2, “Sulforaphane-melatonin-like compound” (priority 2018, dated 2024).

Tested on: ICR mice
Experiment: X-ray-induced oral mucositis in mice: survival and behaviour
Type: in vivo
Description: In a second example for illustrating embodiments of the present invention, six-week-old ICR mice (30-40 g) obtained from Institute of Animal Breeding and Genetics, University of Gottingen, Germany were used. The animals were housed in a room maintained at 22±2° C. under a 12-h light-dark cycle with lights on at 7:00 a.m. Mice were fed a standard rodent diet and had free access to water. In addition, no antibiotic supplements were used. All animal experiments were performed in compliance to The German Animal Welfare Act. The mice (n=20 per group) were anesthetized (pentobarbital sodium, 50 mg/kg body weight, i.p.) and then irradiated. Mice had to be irradiated only at the tip of the tongue, so the rest of the body was shielded with a lead device (thickness, 0.5 mm). The tongue was fixed to the outer surface of the lead device using adhesive tape and irradiated with a single radiation dose of 20 Gy. Radiation was generated using a 150 kV potential (20 mA) X-ray source at a focal distance of 350 mm and beam-hardened by a 1.0-mm aluminum filtration system (MBR-1520R-3; Hitachi, Tokyo, Japan). The dose rate was 5.1 Gy/min. The 6OHM-6-HITC compound was dissolved in a small volume of 1 M NaOH solution. The pH was adjusted to 7 with 1 M HCL. […] The body weight was recorded and the tongues were observed daily after irradiation. […]

In the case of COc1cc2c(CCCCN=C=S)c[nH]c2cc1O [6OHM-6-HITC], the behavioral disorders (300 mg/kg i.p.) is reported as “not observed” and the “survival after X-ray irradiation” value (30 and 300 mg/kg i.p. 30 min before 20 Gy irradiation of the tongue) is reported as “significant difference in survival was not found”.
